1 compound from patent publication US20080312201A1, “Reduced Toxicity Methotrexate Formulations and Methods for Using the Same” (priority 2004, published 2008) can be followed below.

Data set [1] relates to mice. The data set is described as follows: Mouse testing: toxic side effects of MTX, liver examination. Format: in vivo. As to conditions: after two weeks of treatment every other day. On the procedure: (§1) The primary aspect is testing in mice for the ability to translate the toxic reducing action of the additive from flies into mice. Methotrexate was administered at a more moderate dose level, repeatedly over a long period of time. All additives tested for reducing the toxic side effects of MTX in mice were successful. That is 100% of the compounds identified in flies as toxic reducing compounds translated this activity into mice, for both chronic and acute applications. One of the signs of chronic liver damage by methotrexate is metabolic weight gain. The treatments were done on older juvenile mice (cohort of six). There weight gain was followed for two weeks with treatments given every other day.
At the end of the experiment, livers were examined.

A short description of data set [2]: Mouse testing: weight gain under repeated methotrexate. Format: in vivo. As to conditions: older juvenile mice, cohort of six; for weight: treatments every other day. As for the experimental part: as §1
The test system of data set [3] is fruit flies. The data set is described as follows: Lethal dose (LD) curve in fruit flies. As to conditions: chemical mixed into food and water, 50 wild-type embryos; range tested 0.01 mM to 5 mM. Format: in vivo, Drosophila. On the procedure: The LD curve in fruit flies was generated for methotrexate. The data to generate the curve was obtained by: Mixing a specific concentration of chemical into the food and water supply of the fruit flies, then 50 wild-type embryos are added to the assay. The LD value for this concentration was calculated by 100−(2×(number of alive flies)). The LD curve was generated by repeating this method over a concentration range. For example, the concentration range tested for methotrexate was 0.01 mM to 5 mM. The LD 98 was identified for methotrexate was 0.5 mM. The LD98 was used as a stringent level for identifying additive chemicals that reduce the toxicity. This stringent level of toxicity is key for several reasons: 1) The high toxicity dose turns even mild toxic side effects into significant barriers for the flies to survive. At the LD98 concentration of methotrexate, all of the toxic mechanisms are orders of magnitude above that observed at physiological treatment doses. At the LD98 dose, suppressing any one toxicity side effect will not enable significant survival of the flies. An additive that enables significant survival is more likely able to reduce all toxic side effects of methotrexate.

In data set [4] the test system is Ovarian cancer cell. The data set is described as follows: Human cancer cell assessment. Format: cell-based. The text has this:
As a quick secondary screen, the additive alone and in combination with the target drug was examined in these human cancer cell lines. The results of TK-336 are shown as a specific example. The compound alone when treated over a wide concentration range had no effects against the cancer cells.

Consider `CN(Cc1cnc2nc(N)nc(N)c2n1)c1ccc(C(=O)N[C@@H](CCC(=O)O)C(=O)O)cc1` [MTX], for which the “appearance of the livers at the end of the experiment” value in data set [1] is “smaller, yellow/orange in color and had almost no veins in the organ”. For the same compound, the “vein density in the liver” value in data set [1] was 5 % of the normal density. In addition, the weight was determined as 107 in data set [2] (Day 0), 107 in data set [2] (Day 7) and 110 in data set [2] (Day 14). In data set [2] (over two weeks), the weight gain/week is listed as about 1 % weight gain/week. The compound further came in with an LD98 in data set [3] of 0.5 mM. The Cell survival in data set [4] (15 μg/ml) was found to be 50%; in data set [4] (30 μg/ml) it was 5%.
